Measurements reported in article PMC7193532 (Acta Crystallographica. Section D, Structural Biology, 2020).
Converted amounts (≈) assume the structure as drawn. *1 amine or outer side, *2 acyl side, *3 side chain or, on linkers, in order; H or OH if unused. Where a SMILES comes first, the peptide text is derived from it. Bridges are numbered along the chain shown (N, C = ends). [ ]: non-standard residue; d: D form. The star is where a group is joined. ξ: configuration not given here. Phe(3R-OH) = O=C([C@@H](N[*:1])[C@H](O[*:3])c1ccccc1)[*:2]; NMeTrp(4-OMe) = CN[CH](Cc1c[nH]c2cccc(OC)c12)C(=O)O; X1 = O=C(C(N[*:1])C(O)c1ccccc1)[*:2]; NMeT = CN[CH](C(=O)O)[CH](C)O; NMeI = CC[CH](C)[CH](NC)C(=O)O; ξNMe2Val = CC(C)C(C(=O)*)N(C)C; NMeL = CN[CH](CC(C)C)C(=O)O; NMeV = CN[CH](C(=O)O)C(C)C

Assays:
[1] = target: full-length ClpC1 (ClpC1-FL) (Mycobacterium tuberculosis) (UniProt P9WPC9); assay: SPR
[2] = target: ClpC1-FL (Mycobacterium tuberculosis, UniProt P9WPC9); assay type: binding; conditions: for Stoichiometry (Sm): calculated from SPR responses, compound molecules per ClpC1; for improvement of χ^2, multi-site versus one-site fit: multi-site fit better; for difference between Kd1 and Kd2: multi-site model
[3] = test system: ClpC1–ClpP1–ClpP2 complex; conditions: 2019, cited from earlier work; for effect on proteolytic activity: ECU, lassomycin: ref Choules et al., Gavrish et al., 2014; for effect on proteolysis: CYMA, RUF-I: ref Schmitt et al., 2011, Choules et al.
[4] = test system: ClpC1; conditions: cited from earlier work
[5] = target: N-terminal domain of ClpC1 (ClpC1-NTD), residues 1-145 plus a C-terminal His tag (Mycobacterium tuberculosis) (UniProt P9WPC9); assay: crystal structure
[6] = test system: ClpC1; conditions: cited from earlier work; remark: listed apart in the source
[7] = test system: Mtb
[8] = co-crystallization attempts

ohmyungsamycin B (OMS-B) (peptide)
Kd1 (site 1, multi-site fit) [1]: 962 nM
Kd2 (site 2, multi-site fit) [1]: 1740 nM

ohmyungsamycin B [OMS-B]
reduction in binding relative to ECU ([2]; structural analogs of ECU): tenfold

lassomycin [reference compound]
effect on proteolytic activity [3]: decrease the proteolytic activity
effect on ATPase activity [4]: activate the ATPase activity

CN[C@H](C(=O)N[C@H](C(=O)N[C@@H]1C(=O)N(C)[C@@H]([C@@H](C)O)C(=O)N[C@@H](C(C)C)C(=O)N(C)[C@@H](CC(C)C)C(=O)N[C@@H](C(C)C)C(=O)N(C)[C@@H](C(C)C)C(=O)N(C)[C@@H](Cc2c[nH]c3cccc(OC)c23)C(=O)N[C@@H](C(C)C)C(=O)N[C@@H]([C@H](O)c2ccccc2)C(=O)N[C@@H](C(C)C)C(=O)O[C@@H]1C)C(C)C)C(C)C [OMS-A, ohmyungsamycin A] (H-[NMeV]VT[NMeT]V[NMeL]V[NMeV][NMeTrp(4-OMe)]V[Phe(3R-OH)]V; ester 3-C)
Stoichiometry (Sm) [2]: 2.2
improvement of χ^2, multi-site versus one-site fit [2]: threefold
difference between Kd1 and Kd2 [2]: fivefold

ecumicin (ECU) (peptide)
stoichiometry N [1]: 2.2
stoichiometry N (ECU per ClpC1-NTD) [5]: 2

C/C=C/C[C@@H]1NC(=O)[C@H](CC(C)C)N(C)C(=O)[C@H](CC(C)C)NC(=O)[C@H](Cc2ccc(O)c([N+](=O)[O-])c2)NC(=O)[C@H](C)N2C(=O)[C@H](CC(C)C2O)N(C)C(=O)[C@H](Cc2cn(C(C)(C)C3CO3)c3ccccc23)NC1=O (stereo partly drawn) [RUF-I, rufomycin I]
effect on proteolysis [3]: inhibition
effect on ATPase activity [4]: no significant effect
enhancement of ATPase activity of ClpC1 [4]: no significant effect
binding in the presence of ECU [6]: cannot bind in the presence of ECU

ohmyungsamycin A (OMS-A) (peptide)
stoichiometry N [1]: 2.2

cyclomarin A [CYMA, reference compound]
effect on proteolysis [3]: activation
effect on ATPase activity [4]: no effect on the ATPase activity

CCC(C)C(C(=O)NC1C(=O)N(C)C(C(C)O)C(=O)NC(C(C)C)C(=O)N(C)C(CC(C)C)C(=O)NC(C(C)C)C(=O)N(C)C(C(C)C)C(=O)N(C)C(Cc2c[nH]c3cccc(OC)c23)C(=O)NC(C(C)C)C(=O)NC(C(O)c2ccccc2)C(=O)NC(C(C)C)C(=O)OC1C)N(C)C(=O)C(NC(=O)C(C(C)C)N(C)C)C(C)C (stereo not drawn) [ECU, ecumicin] (ξNMe2Val-V[NMeI]T[NMeT]V[NMeL]V[NMeV][NMeTrp(4-OMe)]V[X1]V; ester 3-C; configuration not given here)
χ^2 of one-site fit ([2]; 1:1 Langmuir model, smaller = better fit): 16.1
Stoichiometry (Sm) [2]: 2.2
χ^2 of multi-site fit ([2]; heterogeneous ligand model, smaller = better fit): 3.2
improvement of χ^2, multi-site versus one-site fit [2]: fivefold
difference between Kd1 and Kd2 [2]: about 18 fold
MIC90 [7]: 0.11 ± 0.013 µM (≈ 0.176 µg/mL)
solubility (in words) [8]: poor solubility
effect on proteolytic activity [3]: decrease the proteolytic activity
effect on ATPase activity [4]: activate the ATPase activity
enhancement of ATPase activity of ClpC1 [4]: at least twofold
